Square brackets hold non-standard residues; d marks the D form. Ends that are not written are not given here. Lys(Me3) = C[N+](C)(C)CCCC[C@H](N)C(=O)O; Lys(Me2) = CN(C)CCCC[C@H](N)C(=O)O
Assays:
KDM3A = assay: LC-MS demethylation activity assay, KDM3A; format: biochemical, human; conditions: 2 μM KDM, 10 μM H1/H3 peptide, 10 μM FAS, 100 μM LAA, 20 μM 2OG, 50 mM HEPES pH 7.5, 2 h, room temperature; for KDM3A demethylation activity, M: M (mono-) initial methylation state; for KDM3A demethylation activity, D: D (di-) initial methylation state
Procedure: (§1) The substrate specificity of JmjC KDMs for H1 was examined using liquid chromatography coupled to mass spectrometry (LC-MS) assays. The H1 peptides (10 μM) were incubated with the recombinant KDM (2 μM) in HEPES buffer at pH 7.5 at room temperature for 2 h, in the presence of ferrous(II) ammonium sulfate (FAS, 10 μM), sodium ascorbate (LAA, 100 μM) and 2OG (20 μM), and then quenched with formic acid. N^ε-Methylated H3K9 and H3K36 peptides were used as positive controls (Fig. 3–5 and Fig. S2–S6).[26]
(§2) The catalytic domains of the JmjC KDMs used were recombinantly produced as reported in either Escherichia coli (KDM4AM1-L359,[38] KDM4DM1-L359,[39] KDM4EM1-R336,[30] KDM6BD1141–E1590[40] and KDM3CL2157-L2500) or Sf9 cells (KDM3AT515–S1317, KDM3B882–1761, and KDM5DM1-D775) as N-terminally His6-tagged proteins. […] To produce proteins, DNA sequences encoding for KDM3A, KDM3B and KDM5D were inserted into the pFB-LIC vector, containing a TEV-protease cleavable N-terminal 6x-histidine tag via ligation independent cloning (LIC). The resultant plasmids were transformed into baculovirus and Sf9 cells ([…]) which were infected with the virus stock. The cells were grown at 27 °C and 90 rpm for 70 h. Cells were then harvested and suspended in 100 mL of lysis buffer (50 mM HEPES-NaOH, pH 7.4, 500 mM NaCl, 20 mM imidazole, 0.5 mM Tris (2-carboxyethyl)phosphine (TCEP), 5% (v/v) glycerol). […] The supernatant was loaded onto a Ni-NTA gravity column, washed with 10 column volume of lysis buffer and eluted using the elution buffer (50 mM HEPES-NaOH, pH 7.4, 500 mM NaCl, 300 mM imidazole, 0.5 mM TCEP, 5% (v/v) glycerol). The eluted protein was further purified using S200 gel filtration column chromatography (50 mM HEPES-NaOH, pH 7.4, 150 mM NaCl, 0.5 mM TCEP and 5% glycerol). Protein purity was analysed by SDS-PAGE and further confirmed by mass spectrometry. Selected fractions were pooled, concentrated and stored at −80 °C.
(§3) All reagents were purchased from Sigma Aldrich and were of the highest grade available. Ferrous(II) ammonium sulfate (FAS) solutions were prepared freshly by dissolving FAS to 400 mM in 20 mM HCl with subsequent dilution to 1 mM using deionized water. Fresh 2OG (10 mM) and LAA (50 mM) solutions were prepared by dissolving the solids in deionised water. All enzyme reactions were performed in 384-well plates (Greiner Bio-One) with a final reaction volume of 50 μL. Substrate mixtures contained 50 mM HEPES pH 7.5, LAA (100 μM), FAS (10 μM), 2OG (20 μM) and an H1 isoform peptide (10 μM). Reactions were initiated by the addition of enzyme to a final concentration of 2.0 μM. After 2 h, the reactions were stopped by the addition of 5 μL of 10% (v/v) LC-MS grade formic acid (Fisher Scientific) to a final concentration of 1% (v/v). Product analyses were performed by liquid chromatography-mass spectrometry (LC-MS) using an Agilent 1290 infinity II LC system equipped with an Agilent 1290 multisampler and an Agilent 1290 high speed pump and connected to an Agilent 6550 accurate mass iFunnel quadrupole time of flight (Q-TOF) mass spectrometer. 1 μL of the reaction mixture was injected onto a 1.8 μm × 2.1 × 50 mm ZORBAX RRHD Eclipse Plus C18 column (Agilent). Solvent A consisted of HPLC grade water containing 0.1% (v/v) formic acid and solvent B consisted of MeCN containing 0.1% (v/v) formic acid. Peptides were separated using a stepwise gradient (0 min – 95% solvent A, 1.0 min – 80% solvent A, 3.0 min – 45% solvent A, 4.0 min – 45% solvent A, 5.0 min – 0% solvent A, 6.0 min – 0% solvent A, 7.0 min – 95% solvent A). This was followed by a 3 min post-run with 95% solvent A to re-equilibrate the column. All flow rates were 0.2 mL min^−1. A blank injection of HPLC grade water was carried out between each sample injection.

KDM3B = assay: LC-MS demethylation activity assay, KDM3B; format: biochemical, human; conditions: 2 μM KDM, 10 μM H1/H3 peptide, 10 μM FAS, 100 μM LAA, 20 μM 2OG, 50 mM HEPES pH 7.5, 2 h, room temperature; for KDM3B demethylation activity, M: M (mono-) initial methylation state; for KDM3B demethylation activity, D: D (di-) initial methylation state
Procedure: as §1, §2, §3

KDM3C = assay: LC-MS demethylation activity assay, KDM3C; format: biochemical, human; conditions: 2 μM KDM, 10 μM H1/H3 peptide, 10 μM FAS, 100 μM LAA, 20 μM 2OG, 50 mM HEPES pH 7.5, 2 h, room temperature; for KDM3C demethylation activity, M: M (mono-) initial methylation state; for KDM3C demethylation activity, D: D (di-) initial methylation state
Procedure: as §1, §2, §3

KDM4A = assay: LC-MS demethylation activity assay, KDM4A; format: biochemical, human; conditions: 10 μM FAS, 100 μM LAA, 20 μM 2OG, room temperature; for KDM4A demethylation activity, M: M (mono-) initial methylation state; for KDM4A demethylation activity, D: D (di-) initial methylation state; for substrate conversion (demethylation) by KDM4A: 2 μM KDM4A, 10 μM peptide, HEPES pH 7.5, 2 h
Procedure: as §1, §2, §3

KDM4D = target: T1, KDM4D (Homo sapiens, UniProt Q6B0I6); assay: LC-MS demethylation activity assay, KDM4D; format: biochemical; conditions: room temperature; for KDM4D demethylation activity, M: M (mono-) initial methylation state; for KDM4D demethylation activity, D: D (di-) initial methylation state
T1 construct: KDM4AM1-L359,[38]; KDM4DM1-L359,[39]; KDM4EM1-R336,[30]; His6 (N); made in house; host or cells: Escherichia coli
T1 sequence (Q6B0I6 1-359): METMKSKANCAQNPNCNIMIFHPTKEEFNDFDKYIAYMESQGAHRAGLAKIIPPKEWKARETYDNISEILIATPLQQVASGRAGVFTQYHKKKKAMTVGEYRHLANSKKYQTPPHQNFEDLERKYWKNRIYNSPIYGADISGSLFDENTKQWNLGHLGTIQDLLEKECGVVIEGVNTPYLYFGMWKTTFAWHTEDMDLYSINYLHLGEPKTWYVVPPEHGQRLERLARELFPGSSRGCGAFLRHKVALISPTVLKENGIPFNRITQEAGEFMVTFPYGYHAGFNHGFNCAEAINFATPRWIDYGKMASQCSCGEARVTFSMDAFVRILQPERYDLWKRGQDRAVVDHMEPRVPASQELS
Procedure: as §1, §2, §3

KDM4E = target: T2, KDM4E (Homo sapiens, UniProt B2RXH2); assay: LC-MS demethylation activity assay, KDM4E; format: biochemical; conditions: room temperature; for KDM4E demethylation activity, M: M (mono-) initial methylation state; for KDM4E demethylation activity, D: D (di-) initial methylation state
T2 construct: KDM4DM1-L359,[39]; KDM4EM1-R336,[30]; His6 (N); made in house; host or cells: Escherichia coli
T2 sequence (B2RXH2 1-336): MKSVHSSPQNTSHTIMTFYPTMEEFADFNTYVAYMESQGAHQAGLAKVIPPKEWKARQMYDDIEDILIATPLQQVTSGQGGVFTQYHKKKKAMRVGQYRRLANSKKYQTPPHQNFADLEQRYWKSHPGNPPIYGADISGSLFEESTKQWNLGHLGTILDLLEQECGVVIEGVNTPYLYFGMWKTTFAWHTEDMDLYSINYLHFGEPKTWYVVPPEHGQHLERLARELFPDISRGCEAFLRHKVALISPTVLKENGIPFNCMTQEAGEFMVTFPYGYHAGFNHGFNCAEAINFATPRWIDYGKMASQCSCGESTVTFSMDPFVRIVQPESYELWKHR
Procedure: as §1, §2, §3

KDM5D = assay: LC-MS demethylation activity assay, KDM5D; format: biochemical, human; conditions: 2 μM KDM, 10 μM H1/H3 peptide, 10 μM FAS, 100 μM LAA, 20 μM 2OG, 50 mM HEPES pH 7.5, 2 h, room temperature; for KDM5D demethylation activity, M: M (mono-) initial methylation state; for KDM5D demethylation activity, D: D (di-) initial methylation state
Procedure: as §1, §2, §3

KDM6B = assay: LC-MS demethylation activity assay, KDM6B; format: biochemical, human; conditions: 2 μM KDM, 10 μM H1/H3 peptide, 10 μM FAS, 100 μM LAA, 20 μM 2OG, 50 mM HEPES pH 7.5, 2 h, room temperature; for KDM6B demethylation activity, M: M (mono-) initial methylation state; for KDM6B demethylation activity, D: D (di-) initial methylation state
Procedure: as §1, §2, §3

[1] = 2 μM KDM, 10 μM H1/H3 peptide, 50 mM HEPES pH 7.5, 2 h
[2] = 2 μM KDM, 10 μM H1/H3 peptide, 10 μM FAS, 100 μM LAA, 20 μM 2OG, 50 mM HEPES pH 7.5, 2 h
[3] = T (tri-) initial methylation state
[4] = 2 μM KDM4D, 10 μM peptide, standard conditions, 2 h
[5] = 2 μM KDM, 10 μM H1/H3 peptide, 10 μM FAS, 100 μM LAA, 20 μM 2OG, 50 mM HEPES pH 7.5, 2 h, T (tri-) initial methylation state

Substance | KDM4D demethylation activity, M (KDM4D; [2]) | KDM4E demethylation activity, M (KDM4E; [2]) | KDM3A demethylation activity, M (KDM3A) | KDM3B demethylation activity, M (KDM3B) | KDM3C demethylation activity, M (KDM3C) | KDM4A demethylation activity, M (KDM4A; [1]) | KDM5D demethylation activity, M (KDM5D) | KDM6B demethylation activity, M (KDM6B) | KDM3A demethylation activity, D (KDM3A) | KDM3B demethylation activity, D (KDM3B) | KDM3C demethylation activity, D (KDM3C) | KDM4A demethylation activity, D (KDM4A; [1]) | KDM4D demethylation activity, D (KDM4D; [2]) | KDM4E demethylation activity, D (KDM4E; [2]) | KDM5D demethylation activity, D (KDM5D) | KDM6B demethylation activity, D (KDM6B) | substrate conversion (demethylation) by KDM4A (KDM4A) [%] | also measured
KKKAT[Lys(Me2)]KAAGAGAAK [Peptide H1.5K25me2, 15-mer linker histone H1.5 residues 20-34 peptide, di-methylated K25] | – | – | – | – | – | – | – | – | ● [red] | ● [red] | ● [red] | ● [red] | ● [red] | ● [red] | ● [red] | ● [red] | – | –
KKKAT[Lys(Me3)]KAAGAGAAK [Peptide H1.5K25me3, 15-mer linker histone H1.5 residues 20-34 peptide, tri-methylated K25] | – | – | – | – | – | – | – | – | – | – | – | – | – | – | – | – | < 10 | KDM3A demethylation activity, T (KDM3A; [3]): ● [red]; KDM3B demethylation activity, T (KDM3B; [3]): ● [red]; KDM3C demethylation activity, T (KDM3C; [3]): ● [red]; KDM4A demethylation activity, T (KDM4A; 2 μM KDM, 10 μM H1/H3 peptide, 50 mM HEPES pH 7.5, 2 h, T (tri-) initial methylation state): ● [yellow] (yellow dots indicate moderate demethylation (<50% conversion)); KDM4D demethylation activity, in words (KDM4D; [4]): No activity was observed; di-methylated product formed by KDM4D (KDM4D; [4]): < 5%; KDM4D demethylation activity, T (KDM4D; [5]): ● [red]; KDM4E demethylation activity, T (KDM4E; [5]): ● [red]; KDM5D demethylation activity, T (KDM5D; [3]): ● [red]; KDM6B demethylation activity, T (KDM6B; [3]): ● [red]
KKKA[Lys(Me2)]KAGATAGKRK [Peptide H1.3K24me2, 15-mer linker histone H1.3 residues 20-34 peptide, di-methylated K24] | – | – | – | – | – | – | – | – | ● [red] | ● [red] | ● [red] | ● [yellow] (yellow dots indicate moderate demethylation (<50% conversion)) | ● [green] (green dots indicate good demethylation (>50% conversion)) | ● [green] (green dots indicate good demethylation (>50% conversion)) | ● [red] | ● [red] | ~23 | mono-methylated product formed by KDM4D (KDM4D; [4]): ~53%; non-methylated product formed by KDM4D (KDM4D; [4]): ~8%; unmethylated lysine product formed by KDM4E (KDM4E; 2 μM KDM4E, 10 μM peptide, standard conditions, 2 h): ~60%

More lines, main results first:

KDM4D demethylation activity, M (KDM4D; [2]) | KDM4E demethylation activity, M (KDM4E; [2]) | Substance | KDM3A demethylation activity, M (KDM3A) | KDM3B demethylation activity, M (KDM3B) | KDM3C demethylation activity, M (KDM3C) | KDM4A demethylation activity, M (KDM4A; [1]) | KDM5D demethylation activity, M (KDM5D) | KDM6B demethylation activity, M (KDM6B) | KDM3A demethylation activity, D (KDM3A) | KDM3B demethylation activity, D (KDM3B) | KDM3C demethylation activity, D (KDM3C) | KDM4A demethylation activity, D (KDM4A; [1]) | KDM4D demethylation activity, D (KDM4D; [2]) | KDM4E demethylation activity, D (KDM4E; [2]) | KDM5D demethylation activity, D (KDM5D) | KDM6B demethylation activity, D (KDM6B) | substrate conversion (demethylation) by KDM4A (KDM4A) [%] | also measured
● [red] | ● [red] | KKKATKmeKAAGAGAAK [Peptide H1.5K25me, 15-mer linker histone H1.5 residues 20-34 peptide, mono-methylated K25] | ● [red] | ● [red] | ● [red] | ● [red] | ● [red] | ● [red] | – | – | – | – | – | – | – | – | – | –
● [red] | ● [red] | SAPATGGVKmeKPHRYRPGTVAL [Peptide H3K36me, histone H3 residues 28-48 peptide with mono-methylated K36; control, reference compound] | ● [red] | ● [red] | ● [red] | ● [red] | ● [red] | ● [red] | – | – | – | – | – | – | – | – | – | –

From paper PMC12363342, “Investigating the N-terminal linker histone H1 subtypes as substrates for JmjC lysine demethylases” (RSC Chemical Biology, 2025)
